Measurements published in PubChem BioAssay (NCI).
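96-well plates; 48 h exposure; 5 concentrations. Endpoints by linear interpolation between flanking doses. Not reached: highest tested concentration assigned. TGI marks complete inhibition of growth.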

Columns and labels:
Assay in all cases: NCI tumour cell line growth inhibition, 48 h
[1] = system: NCI-H226 lung
[2] = system: OVCAR-5 ovarian
[3] = system: MDA-N
[4] = system: MDA-MB-231 breast
[5] = system: ACHN renal
[6] = system: RPMI-8226 leukemia
[7] = system: SK-OV-3 ovarian
[8] = system: SNB-75 CNS
[9] = system: HT29 colon
[10] = system: MDA-MB-435
[11] = system: BT-549 breast
[12] = system: OVCAR-8 ovarian
[13] = system: SF-539 CNS
[14] = system: UACC-257 melanoma
[15] = system: HCT-116 colon
[16] = system: HCC-2998 colon
[17] = system: SK-MEL-2 melanoma
[18] = system: SNB-19 CNS
[19] = system: LOX IMVI melanoma
[20] = system: NCI-H23 lung
[21] = system: OVCAR-4 ovarian
[22] = system: NCI/ADR-RES ovarian
[23] = system: MALME-3M melanoma
[24] = system: U251 CNS
[25] = system: UACC-62 melanoma
[26] = system: HOP-62 NSCLC
[27] = system: CAKI-1 renal
[28] = system: NCI-H460 lung
[29] = system: UO-31 renal
[30] = system: SK-MEL-28 melanoma
[31] = system: MCF7 breast
[32] = system: OVCAR-3 ovarian
[33] = system: EKVX NSCLC
[34] = system: KM12 colon
[35] = system: HS 578T breast
[36] = system: HL-60(TB) leukemia
[37] = system: MOLT-4 leukemia
[38] = system: A498 renal
[39] = system: CCRF-CEM leukemia
[40] = system: IGROV1 ovarian
[41] = system: T-47D breast
[42] = system: SN12C renal
[43] = system: PC-3 prostate
[44] = system: DU-145 prostate
[45] = system: SK-MEL-5 melanoma
[46] = system: COLO 205 colon
[47] = system: HCT-15 colon
[48] = system: M14 melanoma
[49] = system: SF-268 CNS
[50] = system: NCI-H522 lung
[51] = system: RXF 393 renal
[52] = system: K-562 leukemia
[53] = system: SF-295 CNS
[54] = system: HOP-92 NSCLC
[55] = system: 786-0 renal
[56] = system: TK-10 renal
[57] = system: SR leukemia
[58] = system: SW-620 colon
[59] = system: A549 NSCLC

CCCCCCCCCCC/C=C(/C(=O)CCCO[Si](C)(C)C(C)(C)C)C(=O)OC
TGI [1]: > 100 µM | TGI [2]: > 100 µM | TGI [3]: > 100 µM | TGI [4]: > 100 µM | TGI [5]: > 100 µM | TGI [6]: > 100 µM | TGI [7]: > 100 µM | TGI [8]: > 100 µM | TGI [9]: > 100 µM | TGI [10]: > 100 µM | TGI [11]: > 100 µM | TGI [12]: > 100 µM | TGI [13]: > 100 µM | TGI [14]: > 100 µM | TGI [15]: > 100 µM | TGI [16]: > 100 µM | TGI [17]: > 100 µM | TGI [18]: > 100 µM | TGI [19]: > 100 µM | TGI [20]: > 100 µM | TGI [21]: > 100 µM | TGI [22]: > 100 µM | TGI [23]: > 100 µM | TGI [24]: > 100 µM | TGI [25]: > 100 µM | TGI [26]: > 100 µM | TGI [27]: > 100 µM | TGI [28]: > 100 µM | TGI [29]: > 100 µM | TGI [30]: > 100 µM | TGI [31]: > 100 µM | TGI [32]: > 100 µM | TGI [33]: > 100 µM | TGI [34]: > 100 µM | TGI [35]: > 100 µM | TGI [36]: > 100 µM | TGI [37]: > 100 µM | TGI [38]: > 100 µM | TGI [39]: > 100 µM | TGI [40]: > 100 µM | TGI [41]: > 100 µM | TGI [42]: > 100 µM | TGI [43]: > 100 µM | TGI [44]: > 100 µM | TGI [45]: > 100 µM | TGI [46]: > 100 µM | TGI [47]: > 100 µM | TGI [48]: > 100 µM | TGI [49]: > 100 µM | TGI [50]: > 100 µM | TGI [51]: > 100 µM | TGI [52]: > 100 µM | TGI [53]: > 100 µM | TGI [54]: > 100 µM | TGI [55]: > 100 µM | TGI [56]: > 100 µM | TGI [57]: > 100 µM | TGI [58]: > 100 µM

Cc1c(-c2ccccc2)c(C#N)c2nnn(-c3ccc(Cl)cc3)c(=O)n12
TGI [1]: > 100 µM | TGI [2]: > 100 µM | TGI [3]: > 100 µM | TGI [4]: > 100 µM | TGI [5]: > 100 µM | TGI [6]: > 100 µM | TGI [7]: > 100 µM | TGI [8]: > 100 µM | TGI [9]: > 100 µM | TGI [10]: > 100 µM | TGI [11]: > 100 µM | TGI [12]: > 100 µM | TGI [13]: > 100 µM | TGI [14]: > 100 µM | TGI [15]: > 100 µM | TGI [16]: > 100 µM | TGI [17]: > 100 µM | TGI [18]: > 100 µM | TGI [19]: > 100 µM | TGI [20]: > 100 µM | TGI [21]: > 100 µM | TGI [22]: > 100 µM | TGI [23]: > 100 µM | TGI [24]: 27.3 µM | TGI [25]: > 100 µM | TGI [26]: > 100 µM | TGI [27]: > 100 µM | TGI [28]: > 100 µM | TGI [29]: > 100 µM | TGI [30]: > 100 µM | TGI [31]: > 100 µM | TGI [32]: 52.2 µM | TGI [33]: > 100 µM | TGI [34]: > 100 µM | TGI [35]: > 100 µM | TGI [36]: > 100 µM | TGI [38]: > 100 µM | TGI [39]: > 100 µM | TGI [40]: > 100 µM | TGI [41]: 47.4 µM | TGI [42]: > 100 µM | TGI [59]: > 100 µM | TGI [43]: 50.9 µM | TGI [44]: > 100 µM | TGI [45]: 16 µM | TGI [46]: 42.3 µM | TGI [47]: > 100 µM | TGI [48]: > 100 µM | TGI [49]: > 100 µM | TGI [50]: 26.7 µM | TGI [51]: > 100 µM | TGI [52]: > 100 µM | TGI [53]: > 100 µM | TGI [54]: > 100 µM | TGI [55]: 47.7 µM | TGI [56]: > 100 µM | TGI [57]: > 100 µM | TGI [58]: > 100 µM
